The target of the assay is T1, PDE2 (Bos taurus, UniProt P14099).
T1 sequence (P14099 1-921): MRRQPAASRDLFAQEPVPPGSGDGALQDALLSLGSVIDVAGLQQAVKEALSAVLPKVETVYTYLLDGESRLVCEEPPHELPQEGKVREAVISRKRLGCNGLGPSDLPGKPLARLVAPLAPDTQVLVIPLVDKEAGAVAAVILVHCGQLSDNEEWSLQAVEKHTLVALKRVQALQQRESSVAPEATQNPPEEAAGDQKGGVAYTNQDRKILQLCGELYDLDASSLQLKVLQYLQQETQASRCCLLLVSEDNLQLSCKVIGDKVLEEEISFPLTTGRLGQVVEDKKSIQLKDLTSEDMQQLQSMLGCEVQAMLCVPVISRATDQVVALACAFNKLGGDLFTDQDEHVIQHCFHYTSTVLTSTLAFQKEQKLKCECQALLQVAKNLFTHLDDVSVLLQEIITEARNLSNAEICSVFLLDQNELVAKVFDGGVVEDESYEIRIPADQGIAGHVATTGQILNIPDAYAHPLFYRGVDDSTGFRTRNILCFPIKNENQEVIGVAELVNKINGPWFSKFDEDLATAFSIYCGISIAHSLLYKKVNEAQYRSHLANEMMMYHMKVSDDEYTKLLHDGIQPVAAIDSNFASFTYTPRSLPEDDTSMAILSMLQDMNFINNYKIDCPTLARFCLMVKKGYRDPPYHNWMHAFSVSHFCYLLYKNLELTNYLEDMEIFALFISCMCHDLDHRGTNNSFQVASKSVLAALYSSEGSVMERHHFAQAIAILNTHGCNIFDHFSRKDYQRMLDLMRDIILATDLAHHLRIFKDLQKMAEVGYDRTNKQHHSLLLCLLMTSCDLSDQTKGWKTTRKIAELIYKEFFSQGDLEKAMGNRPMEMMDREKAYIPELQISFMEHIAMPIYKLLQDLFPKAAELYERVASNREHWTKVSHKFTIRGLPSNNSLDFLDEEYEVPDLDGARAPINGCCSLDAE
As to the kind of experiment: Radioenzymatic phosphodiesterase assay: PDE2 inhibition. Particulars: for inhibition at 10 µM: read-out: PDE2 percentage of inhibition at 10 μM. It is filed as biochemical, bovine. As for the experimental part: Nucleoside radioactivity was determined by liquid scintillation.

What is called inhibition is the relative decrease from the control value, in per cent.

Where two headings read alike, the source gives them in different places.

As for `CN1C(=O)CN=C(c2cccc(N)c2)c2cc(-c3ccccc3)ccc21` [Example 68, 5-(3-Amino-phenyl)-1-methyl-7-phenyl-1,3-dihydro-benzo[e][1,4]diazepin-2-one], the inhibition at 10 µM (Table 1, 10 μM test compound) is 52%.
For the molecule `COc1ccc(C2=NCC(=O)N(C)c3cc(OC)c(-c4ccccc4OC)cc32)cc1` [Example 108, 8-Methoxy-5-(4-methoxy-phenyl)-7-(2-methoxy-phenyl)-1-methyl-1,3-dihydro-benzo[e][1,4]diazepin-2-one], the inhibition at 10 µM was 99%.
Take `CN1C(=O)CN=C(c2cccc(Cl)c2)c2cc(-c3ccccc3)ccc21` [Example 40, 5-(3-Chloro-phenyl)-1-methyl-7-phenyl-1,3-dihydro-benzo[e][1,4]diazepin-2-one]: the inhibition at 10 µM (Table 1, 10 μM test compound) worked out at 68%.
For `CN1C(=O)CN=C(c2cccc(C(N)=O)c2)c2cc(-c3ccccc3Cl)c(Oc3ccccc3)cc21` [Example 73, 3-[7-(2-Chloro-phenyl)-1-methyl-2-oxo-8-phenoxy-2,3-dihydro-1H-benzo[e][1,4]diazepin-5-yl]-benzamide], the inhibition at 10 µM came to 96%.
Regarding `CN1C(=O)CN=C(c2cccc(C#N)c2)c2cc(-c3ccccc3)c(Oc3ccccc3)cc21` [Example 69, 3-(1-Methyl-2-oxo-8-phenoxy-7-phenyl-2,3-dihydro-1H-benzo[e][1,4]diazepin-5-yl)-benzonitrile], the inhibition at 10 µM stood at 4%.
As for `COc1cc2c(cc1-c1ccccc1)C(c1ccc(C#CCNC(=O)OC(C)(C)C)cc1)=NCC(=O)N2C` [Example 96, {3-[4-(8-Methoxy-1-methyl-2-oxo-7-phenyl-2,3-dihydro-1H-benzo[e][1,4]diazepin-5-yl)-phenyl]-prop-2-ynyl}-carbamic acid tert-butyl ester], the inhibition at 10 µM is 21%.
As to `COc1ccc(C2=NCC(=O)N(C)c3ccc(-c4ccccc4)cc32)cc1` [Example 50, 5-(4-Methoxy-phenyl)-1-methyl-7-phenyl-1,3-dihydro-benzo[e][1,4]diazepin-2-one], the inhibition at 10 µM stood at 95%.
As for `COc1ccccc1-c1cc2c(cc1OC)N(Cc1ccccc1)C(=O)CN=C2c1cccc(C(N)=O)c1` [Example 44, 3-[1-Benzyl-8-methoxy-7-(2-methoxy-phenyl)-2-oxo-2,3-dihydro-1H-benzo[e][1,4]diazepin-5-yl]-benzamide], the inhibition at 10 µM turned out to be 88%.
As for `N#Cc1cccc(C2=NCC(=O)Nc3cc(OC(F)(F)F)c(-c4ccccc4)cc32)c1` [Example 85, 3-(2-Oxo-7-phenyl-8-trifluoromethoxy-2,3-dihydro-1H-benzo[e][1,4]diazepin-5-yl)-benzonitrile], the inhibition at 10 µM was found to be 70%.
As for `COc1ccccc1-c1ccc2c(c1)C(c1cccc(C#N)c1)=NCC(=O)N2C` [Example 12, 3-[7-(2-Methoxy-phenyl)-1-methyl-2-oxo-2,3-dihydro-1H-benzo[e][1,4]diazepin-5-yl]-benzonitrile], where the note is “Table 1, 10 μM test compound”, the inhibition at 10 µM was 40%.
In the case of `COc1cc2c(cc1-c1c(OC)cccc1OC)C(c1cccc(C#N)c1)=NCC(=O)N2C` [Example 89, 3-[7-(2,6-Dimethoxy-phenyl)-8-methoxy-1-methyl-2-oxo-2,3-dihydro-1H-benzo[e][1,4]diazepin-5-yl]-benzonitrile], the inhibition at 10 µM was found to be 99%.
With `COc1cccc(OC)c1-c1ccc2c(c1)C(c1ccc(C)c([N+](=O)[O-])c1)=NCC(=O)N2C` [Example 77, 7-(2,6-Dimethoxy-phenyl)-1-methyl-5-(4-methyl-3-nitro-phenyl)-1,3-dihydro-benzo[e][1,4]diazepin-2-one], the inhibition at 10 µM was 99%.
Take `COc1cccc(OC)c1-c1ccc2c(c1)C(c1ccc(Cl)c(Cl)c1)=NCC(=O)N2C` [Example 99, 5-(3,4-Dichloro-phenyl)-7-(2,6-dimethoxy-phenyl)-1-methyl-1,3-dihydro-benzo[e][1,4]diazepin-2-one]: the inhibition at 10 µM was 98%.
On to `COc1cc2c(cc1-c1ccco1)C(c1cccc(C(N)=O)c1)=NCC(=O)N2C` [Example 26, 3-(7-Furan-2-yl-8-methoxy-1-methyl-2-oxo-2,3-dihydro-1H-benzo[e][1,4]diazepin-5-yl)-benzamide], for which, under “Table 1, 10 μM test compound”, the inhibition at 10 µM turned out to be 71%.
`COc1ccc(C2=NCC(=O)N(C)c3cc(OC)c(-c4ccccc4Oc4ccccc4)cc32)cc1` [Example 112, 8-Methoxy-5-(4-methoxy-phenyl)-1-methyl-7-(2-phenoxy-phenyl)-1,3-dihydro-benzo[e][1,4]diazepin-2-one]: the inhibition at 10 µM is 99%.
As for `CN1C(=O)CN=C(c2ccc(OC(F)(F)F)cc2)c2cc(-c3ccccc3)ccc21` [Example 61, 1-Methyl-7-phenyl-5-(4-trifluoromethoxy-phenyl)-1,3-dihydro-benzo[e][1,4]diazepin-2-one], for the setting “Table 1, 10 μM test compound”, the inhibition at 10 µM worked out at 31%.
Still for that read-out and setting: the same measure for `COc1cc2c(cc1-c1ccco1)C(c1cccc(C#N)c1)=NCC(=O)N2C` [Example 8, 3-(7-Furan-2-yl-8-methoxy-1-methyl-2-oxo-2,3-dihydro-1H-benzo[e][1,4]diazepin-5-yl)-benzonitrile]: 47%; for `COc1cc2c(cc1-c1cccc(Cl)c1)C(c1cccc(C(N)=O)c1)=NCC(=O)N2C` [Example 24, 3-[7-(3-Chloro-phenyl)-8-methoxy-1-methyl-2-oxo-2,3-dihydro-1H-benzo[e][1,4]diazepin-5-yl]-benzamide]: 98%.
With `CCCCCCN1C(=O)CN=C(c2cccc(C(N)=O)c2)c2cc(-c3ccccc3OC)c(OC)cc21` [Example 47, 3-[1-Hexyl-8-methoxy-7-(2-methoxy-phenyl)-2-oxo-2,3-dihydro-1H-benzo[e][1,4]diazepin-5-yl]-benzamide], the inhibition at 10 µM was 59%.
In the case of `COc1ccccc1-c1cc2c(cc1OC)N(CCc1ccccc1)C(=O)CN=C2c1cccc(C(N)=O)c1` [Example 46, 3-[8-Methoxy-7-(2-methoxy-phenyl)-2-oxo-1-phenethyl-2,3-dihydro-1H-benzo[e][1,4]diazepin-5-yl]-benzamide], the inhibition at 10 µM turned out to be 78%.
Take `CN1C(=O)CN=C(c2cccc(C(N)=O)c2)c2cc(-c3ccccc3Oc3ccccc3)ccc21` [Example 91, 3-[1-Methyl-2-oxo-7-(2-phenoxy-phenyl)-2,3-dihydro-1H-benzo[e][1,4]diazepin-5-yl]-benzamide]: the inhibition at 10 µM (Table 1, 10 μM test compound) was 96%.
For the molecule `COc1cccc(C2=NCC(=O)N(C)c3ccc(-c4ccccc4)cc32)c1` [Example 79, 5-(3-Methoxy-phenyl)-1-methyl-7-phenyl-1,3-dihydro-benzo[e][1,4]diazepin-2-one], the inhibition at 10 µM (Table 1, 10 μM test compound) amounted to 84%.
The same measure, in the same setting: the same measure for `CN1C(=O)CN=C(c2ccc(Cl)cc2)c2cc(-c3ccccc3)ccc21` [Example 42, 5-(4-Chloro-phenyl)-1-methyl-7-phenyl-1,3-dihydro-benzo[e][1,4]diazepin-2-one]: 1%; for `COc1ccccc1-c1cc2c(cc1OC)NC(=O)CN=C2c1cccc(C#N)c1` [Example 10, 3-[8-Methoxy-7-(2-methoxy-phenyl)-2-oxo-2,3-dihydro-1H-benzo[e][1,4]diazepin-5-yl]-benzonitrile]: 94%.
For the molecule `COc1cc2c(cc1-c1ccc(C#N)cc1)C(c1cccc(C#N)c1)=NCC(=O)N2C` [Example 43, 3-(8-Methoxy-1-methyl-2-oxo-7-(4-cyanophenyl)-2,3-dihydro-1H-benzo[e][1,4]diazepin-5-yl)-benzonitrile], the inhibition at 10 µM was 92%.
As for `COc1ccc(-c2ccc3c(c2)C(c2cccc(C(N)=O)c2)=NCC(=O)N3C)c(OC)c1` [Example 33, 3-[7-(2,4-Dimethoxy-phenyl)-1-methyl-2-oxo-2,3-dihydro-1H-benzo[e][1.4]diazepin-5-yl]-benzamide], the “PDE2 percentage of inhibition at 10 μM” value (Table 1, 10 μM test compound) is reported as 99%.
On to `CN1C(=O)CN=C(c2cc(Cl)cc(Cl)c2)c2cc(-c3ccccc3)ccc21` [Example 55, 5-(3,5-Dichloro-phenyl)-1-methyl-7-phenyl-1,3-dihydro-benzo[e][1,4]diazepin-2-one], for which, where the note is “Table 1, 10 μM test compound”, the inhibition at 10 µM was found to be 53%.
For the molecule `COc1cc2c(cc1-c1ccccc1)C(c1cccc(C#CCNC(=O)OC(C)(C)C)c1)=NCC(=O)N2C` [Example 67, {3-[3-(8-Methoxy-1-methyl-2-oxo-7-phenyl-2,3-dihydro-1H-benzo[e][1,4]diazepin-5-yl)-phenyl]-prop-2-ynyl}-carbamic acid tert-butyl ester], the inhibition at 10 µM was found to be 60%.
Regarding `COc1ccccc1-c1cc2c(cc1OC)NC(=O)CN=C2c1cccc(C(N)=O)c1` [Example 36, 3-[8-Methoxy-7-(2-methoxy-phenyl)-2-oxo-2,3-dihydro-1H-benzo[e][1,4]diazepin-5-yl]-benzamide], the inhibition at 10 µM (Table 1, 10 μM test compound) stood at 94%.
In the case of `CCOc1cc2c(cc1-c1ccccc1)C(c1ccccc1)=NCC(=O)N2CC` [Example 18, 8-Ethoxy-1-ethyl-5,7-diphenyl-1,3-dihydro-benzo[e][1,4]diazepin-2-one], the inhibition at 10 µM (Table 1, 10 μM test compound) was 27%.
